From US7439251B2, “Methods and compositions for treatment of central and peripheral nervous system disorders and novel compounds useful therefor” (Israel Institute for Biological Research, priority 2002, dated 2008)

Tests used:
tau = test: Tau phosphorylation, AT8 immunoblot; assay type: cell-based; conditions: 100 μM; to the control level
Description: Following the experimental design of Sadot et al., J.Neurochem. […] By linking an M1 agonist to an antioxidant moiety tau phophorylation may be decreased, providing a new therapeutic strategy in a variety of CNS disease states due to combined damage due to oxidative stress and tau hyperphosphorylation.

[1] = test system: rat pheochromocytoma cells transfected with the M1 mAChR
ApoE = ApoE synthesis and secretion in rat primary type 1 astrocytes; assay type: cell-based; conditions: 96 hrs; 0.1 nM
Procedure: Primary cultures of type 1 astrocytes were derived from the cortex of Sprague Dawley rats. The compounds tested were dissolved in the culture media and added to cells for 24, 48, 72 and 96 hrs. Media was then removed and kept frozen until ApoE protein levels were evaluated by immunoblot analysis as described in Poirier et al Neuroscience 55: 81-90 (1993).

[2] = Morris water maze in C57BL/10SnJ (small hippocampus) vs C57BL6J mice; assay type: in vivo; conditions: for reversal test, swimming speed: normal hippocampi mice, AF150(S) 0.5 mg/kg, AF267B 1 mg/kg
Procedure: C57BL/10SnJ (B10) mice were selected due to their small hippocampi and decreased number of hippocampal pyramidal neurons; the cell loss seemed to be associated with poor spatial learning.
Each group of mice was randomly divided into 7 treatment groups (n=12-14/group). […] All tested compounds and saline were administered once a day for 4 days before starting the behavioral testing, and then for the duration of the 5-day experiment, 30 minutes before testing.
Training: Each mouse was trained for four consecutive days, four trials (one block) per day, in which the platform position remained constant and was located in the center of the southeast quadrant of the pool. Within each block of four trials, each mouse started at each of the starting locations, but the sequence of locations was randomly selected. A trial consisted of placing a mouse by hand into the water facing the wall of the pool at one of four starting locations, north, south, east or west, around the pool's perimeter. Escape latency (the time to find the platform), path length (the distance traveled by the mouse) and speed (the swimming rate of the mouse) were recorded on each trial by the monitoring system.
For each mouse, the path length, escape latency, and swimming speed of the four trials on each of the 4 training days were grouped into blocks (one block for each day). […] Specific comparisons were performed, using the simple main effects contrasts analysis, which is specifically suited for testing significant interactions.
Transfer test. During trial No. 17, on the fourth day, the platform was entirely removed from the pool (a probe trial). In this trial, the mouse was placed into the water for a limited period (30 s), and its spatial bias was measured by recording the relative distribution of escape latency and path length over the four quadrants of the pool.
Reversal test. During trials 18-21, on the fifth day, the platform position was changed to the northwest quadrant, opposite to the training quadrant Thus, during reversal learning, the platform location was moved relative to the configuration of objects within the room, but the pool occupied the same place within the room throughout the entire experiment. Testing of the […] and measures taken were the same as in training.
For each mouse, the escape latency, path length and swimming speed of the reversal test (trials No. 18-21) were grouped into one block.

[3] = small hippocampus mice, AF compounds 0.5 and 1 mg/kg i.p., rivastigmine, nicotine 1 mg/kg i.p.

For CCC1SC2(CCN(C)CC2)N(C(=O)CCc2c[nH]c3ccccc23)C1=O (racemic) [AF704, 2-Ethyl-4(3-1H-indol-3-yl-propionyl)-8-methyl-1-thia-4,8-diaza-spiro[4.5]decan-3-one], the “phosphorylated tau (AT8)” value (tau) was “induce dephosphorylation of tau proteins” and the β-A25-35-induced cytotoxicity [1] was “more effective than carbachol and AF267B”.
In the case of CC1OC2(CS1)CN1CCC2CC1 (stereo not shown) [AF102B, reference compound], the “inhibition of ApoE production” value (ApoE) is reported as “inactive”.
For CC[C@@H]1SC2(CCN(C)CC2)N(S(=O)(=O)c2ccc(F)cc2)C1=O [AF700, (S)-2-Ethyl-4-(4-fluoro-benzenesulfonyl)-8-methyl-1-thia-4,8diaza-spiro[4.5]decan-3-one], the β-A25-35-induced cytotoxicity [1] was “more effective than carbachol and AF267B”.
With CCC1SC2(CCN(C)CC2)N(CCc2c[nH]c3ccccc23)C1=O (stereo not shown) [AF703, 2-Ethyl-4-[2-(1H-indol-3-yl)ethyl]-8-methyl-1-thia-4,8-diaza-spiro[4.5]decan-3-one] the β-A25-35-induced cytotoxicity [1] was “more effective than carbachol and AF267B”.
In the case of CN1CCCC1c1cccnc1 (stereo not shown) [nicotine, reference compound], the “reversal test, swimming speed” value [2] is reported as “significantly decreased”, the “training, escape latency” value ([2]; normal hippocampus mice) is reported as “degraded the performance” and the “training, swimming speed” value ([2]; normal hippocampus mice) is reported as “significantly decreased the swimming speed”. The “reversal test, escape latency” value ([2]; normal hippocampus mice, AF150(S) at 0.5 mg/kg) was “no significant effect”, the “training, swimming speed” value ([2]; small hippocampus mice) was “Neither rivastigmine nor nicotine had any significant effect” and the “transfer test, spatial bias” value ([2]; small hippocampus mice) was “only a partial spatial bias”. The “training, escape latency” value [2, 3] was “no improving effect”.
With CCN(C)C(=O)Oc1cccc([C@H](C)N(C)C)c1 [rivastigmine, reference compound] the “reversal test, swimming speed” value [2] was “significantly decreased”, the “training, swimming speed” value ([2]; normal hippocampus mice) was “significantly decreased the swimming speed” and the “training, swimming speed” value ([2]; small hippocampus mice) was “Neither rivastigmine nor nicotine had any significant effect”. The “transfer test, spatial bias” value ([2]; small hippocampus mice) was “complete spatial bias”, the “training, path length” value ([2]; small hippocampus mice, AF150(S) both doses, AF267B the higher dose) was “positively affected the performance” and the “training, escape latency” value [2, 3] was “positively affected the training performance”.
With “(S)-Ethyl-4-(3-1H-indol-3-yl-propionyl)-8-methyl-1-thia-4,8-diaza-spiro[4.5]decan-3-one [AF704B]” the “phosphorylated tau (AT8)” value (tau) was “induce dephosphorylation of tau proteins”.
